{"source": "patent US4851385A", "about": "“LHRH antagonist analogs having low histamine-release activity” (Indiana University Foundation, priority 1987, dated 1989)", "key": {"[1]": {"tested_on": "histamine release", "conditions": "cited from earlier work"}, "[2]": {"tested_on": "rat mast cells", "conditions": "mast cell supernatants assayed concomitantly for lactic dehydrogenase", "source_text": "The ED50 values of Table I (mean effective dose from dose response curves), are expressed in μg/ml. […] For routine testing, mast cells were not purified."}, "[3]": {"tested_on": "rat", "assay": "Standard antiovulatory assay (Corbin and Beattie)", "type": "in vivo", "experimental": "Antiovulatory activity was determined by standard antiovulatory assays conducted by the method described by Corbin and Beattie, Endocrine Research Communications 2 1 (1975) and results are given in Table I."}, "[4]": {"tested_on": "rat mast cells", "assay": "In vitro histamine releasing activity assay (rat peritoneal mast cell suspension, fluorometric histamine assay)", "type": "cell-based", "conditions": "mean effective dose from dose response curves, 15 min at 37° C., duplicate or triplicate, cells from at least three rats", "experimental": "The in vitro histamine release activity of the analogs was assayed by the method described below and the results are given in Table I.\nA suspension of rat mast cells was added to increasing concentrations of peptide and the mixture was incubated for a few minutes followed by centrifugation to collect the histamine in the supernatant. A PIPES (piperazine-N,N'-bis[2-ethanesulfonic acid]) medium buffered at pH 7.4 containing NaCl119 mM, KCl5 mM, PIPES 25mM, NaOH 40 mM, glucose 5.6 mM, CaCl2 1 mM and 0.1% bovine serum albumin was used. This was designated as PIPES AC. Peptides were dissolved in double distilled H2 O at a concentration of 2 mg ml and stored at -20° C. They were thawed just prior to testing, duluted in PIPES AC and prewarmed for 5 min. at 37° C. Peptides studied were stable to heating at 56° C. for 2 hr., and to freezing and thawing.\nPeritoneal cells were collected from male Sprague-Dawley rats weighing 200 to 250 gm and purchased from Harlan (Madison, Wis.). After euthanasia by CO2, the peritoneal cavity was washed with 50 ml PIPES AC medium containing 20 units of heparin. Following centrifugation at 200×g for 8 min. at 4° C., cells were washed again and finally resuspended to a concentration of 8 to 24×10^5 total leukocytes/ml in PIPES AC. This suspension contained approximately 5-10% mast cells. […]"}}, "note": "Where a SMILES comes first, the peptide text is derived from it. [ ]: non-standard residue; d: D form. dPhe(4-Cl) = N[C@H](Cc1ccc(Cl)cc1)C(=O)O; d2Nal = N[C@H](Cc1ccc2ccccc2c1)C(=O)O", "data": [{"compound": "CC(=O)N[C@H](Cc1ccc2ccccc2c1)C(=O)N[C@H](Cc1ccc(Cl)cc1)C(=O)N[C@H](Cc1c[nH]c2ccccc12)C(=O)N[C@@H](CO)C(=O)N[C@@H](Cc1ccc(O)cc1)C(=O)N[C@H](CCCNC(=N)N)C(=O)N[C@@H](CC(C)C)C(=O)N[C@@H](CCCNC(=N)N)C(=O)N1CCC[C@H]1C(=O)N[C@H](C)C(N)=O", "note": "[Compound 1, [N-Ac-D-Nal(2)^1, D-p-Cl-Phe^2, D-Trp^3, D-Arg^6, D-Ala^10] LHRH] (Ac-[d2Nal][dPhe(4-Cl)][dW]SY[dR]LRP[dA]-NH2)", "values": [{"measurement": "histamine releasing activity (in words)", "setting": "[1]; Karten and Rivier 1986", "result": "potent histamine releasing anlog"}]}, {"compound": "CC(C)C[C@H](NC(=O)CNC(=O)[C@H](Cc1ccc(O)cc1)NC(=O)[C@H](CO)NC(=O)[C@H](Cc1c[nH]c2ccccc12)NC(=O)[C@H](Cc1cnc[nH]1)NC(=O)[C@@H]1CCC(=O)N1)C(=O)N[C@@H](CCCNC(=N)N)C(=O)N1CCC[C@H]1C(=O)NCC(N)=O", "note": "[LHRH, luteinizing hormone-releasing hormone]", "values": [{"measurement": "cell toxicity by release of lactic dehydrogenase", "setting": "[2]", "result": "no evidence seen of cell toxicity"}]}, {"compound": "[Ac-2-D-Nal^1, α-Me-4-C1-D-Phe^2, D-Trp^3, Arg^5, D-Tyr^6, D-Ala^10 ] LHRH", "values": [{"measurement": "times less potent in histamine releasing activity than the synthetic D-Arg6 antagonists", "setting": "[1]; Roeske et al. 1985", "result": "20-40 times"}]}, {"compound": "[Ac-D-2-Nal^1, D-4-C1-Phe^2, D-Trp^3, D-N^ε -Heptyl Lys, Nε-Heptyl Lys^8, D-Ala^10 ]LHRH", "values": [{"measurement": "antiovulatory activity (in words)", "setting": "[3]; N-alkylation of Lys 6 and 8 with a 7-carbon moiety", "result": "lowers antiovulatory activity markedly"}]}, {"compound": "[N--Ac--D-Nal(2)^1,D-C--α-Me--pCl--Phe^2,D-Pal(3)^3,D-Arg^6,hArg(Et2)^8,D-Ala^10 ]LHRH [Compound 2]", "values": [{"measurement": "In Vitro Histamine Release ED50", "setting": "[4]", "result": 4.9, "unit": "mg/L"}, {"measurement": "Ovulation Inhibition, Corn Oil, ED100", "setting": "[3]; corn oil vehicle, ≥ = significant reduction in rats ovulating but ED100 not achieved at the dose, ≥≥ = inactive at the dose tested", "result": 1.0, "unit": "ug/rat"}]}, {"compound": "[N-Ac-D-Nal(2)^1, D-pC1-Phe^2, D-Pal^3, Arg^5, D-Tyr^6, D-Ala^10 ]LHRH", "values": [{"measurement": "mean effective dose for histamine release (known analog)", "setting": "[1]; from Roeske et al. 1985", "result": "about 4.0 ug/ml"}]}]}
